Measured values: patent EP0930296A1, “FLUORINATED PROSTAGLANDIN DERIVATIVES AND MEDICINES” (ASAHI GLASS COMPANY LTD., priority 1996, dated 1998)

Assays:
Japanese white rabbits = test: Test on eye irritations: conditions of the front of the eye, scores by improved Draize method; assay type: in vivo; details: for Condition of nictitating membrane / Edema of eyelid conjunctiva / Iridial congestion / Opacity of the cornea / Opaque fraction of the cornea / Rubor of eyelid conjunctiva / Rubor of supraocular conjunctiva / Secretions / Total score: ten times at 30 minute intervals; for Total score: sum of the scores; for scored in total, as much as Latanoprost did: ratio of total scores, Table 2 to Table 3
Procedure: The eye irritation caused by a compound of the present invention was investigated in accordance with the method of Fukui et al. ("[…]-no-rinsho", 4277-89 (1970)). Male Japanese white rabbits weighing about 2.5 kg were used in the test. A test compound was applied into the conjunctival sac of a right eye ten times at 30 minute intervals. The conditions of the front and the anterior chamber of the eye were observed just before and 1, 2 and 4 hours after the final application, and the damage to the cornea was observed 4 hours after the final application. Into the conjunctival sac of a left eye, the base only, which was free from the test compound, was applied. A) Conditions of the front of the eye: Scores were determined on the basis of the following scale of damage to the eye according to the improved Draize method. • a) Opacity • No cloud (normal); 0 • Scattered clouds in pervasive regions (the details of the iris are clearly visible); 1 • Easily distinguishable translucent regions (details of the iris are not visible so clearly); 2 • Opaque regions, details of the iris are invisible, and the size of the pupil is barely recognizable; 3 • Unclear, the iris is invisible; 4 • b) The size of the region of the cornea falling into the above • None; 0 • More than 0 and not more than 1/4; 1 • More than 1/4 and less than 1/2; 2 • More than 1/2 and less than 3/4; 3 • More than 3/4 and all over; 4 • Normal; 0 • More […], stasis, swelling, congestion around the cornea than normal (any or combinations of them), the iris is still responsive to light (positive for slow reaction); 1 • Irresponsible to light, and bleeding and apparent destruction (any or all of them); 2 • a) Rubor of the eyelid conjunctiva • No congestion; 0 • Slightly reddish mucosae and slight but recognizable vasodilation of the edge of the eyelid; 0.5 • Clearly abnormal congestion, appreciably red mucosae and remarkable swelling; 1 • Pretty remarkably red ocular mucosae and slightly unclear peripheral vessels; 2 • More intense conditions than 2 and pervasive beef-like rubor; 3 • b) Edema of the eyelid conjunctiva • Not swollen; 0 • Slight tendency of edema; 0.5 • More swollen than normal; 1 • Apparently swollen together with part of the integument of the eyelid; 2 • Swollen with about half of the eyelid sagging; 3 • Swollen with about half to all of the eyelid sagging; 4 • c) Rubor of the supraocular conjunctiva • No congestion; 0 • Slight vasodilation around the cornea; 0.5 • More remarkable vasodilation; 1 • Remarkable vasodilation toward the edge of the eyelid or remarkable rubor; 2 • d) Condition of the nictitating membrane • No congestion; 0 • Recognizable vasodilation and tendency of edema; 0.5 • More appreciable vasodilation and rubor of the edge of the eyelid; 1 • Extreme vasodilation and remarkable rubor of the entire nictitating membrane; 2 • e) Secretions • No secretions; 0 • A certain amount more than normal (exclusive of small amount of secretions found at the medial angle of the eye of a normal animal); 1 • Some secretions with a wet eyelid and neighboring fur; 2 • Some secretions with a wet eyelid and a large area of wet fur around the eye; 3 • B) Conditions of the anterior chamber: After the observation of the front of the eye, the inside of the anterior chamber was checked for flares under a slit lamp. • C) Damage to the cornea: After observation of the conditions of the front and anterior chamber of the eye 4 hours after the final application, the cornea was stained with fluorescein, and the remaining dye on the cornea was observed under a slit lamp. […] Further, to comprehensively evaluate damage to the front of the eye, the sum of the scores was calculated as a total score.

crab-eating macaques = test: Effects on intraocular pressure (air-puff applanation tonometer, ketamine anesthesia); assay type: in vivo; details: for Change in ocular pressure after application: average of 8 subjects, relative to initial intraocular pressure
Procedure: The effect of a compound of the present invention on intraocular pressure was studied in accordance with the method disclosed in a report of a study on the effect of the tromethamine salt and the isopropyl ester of PGF2α on intraocular pressure in crab-eating macaques (Exp. Eye Res., 61, 677-683 (1995)).
Male crab-eating macaques weighing from 5 to 7.5 kg (5-10 years old) were used in the test. The intraocular pressures were measured just before and 2, 4 and 6 hours after application of the test compound under ketamine anesthasia (5-10 mg/kg, intramuscular administration) by means of an air-puff applanation tonometer.
The results of application of 0.1% (w/v) ophthalmic solution containing Latanoprost (reference pharmaceutical 1), which is known as a therapeutic agent for glaucoma are also shown in Table 1.

[1] = test system: smooth muscle in the respiratory system; details: Izv. Akad. Nauk SSSR, Ser. Biol., 6, 831 (1989); cited from earlier work
[2] = test system: smooth muscle in the digestive and circulatory systems; details: Izv. Akad. Nauk SSSR, Ser. Biol., 6, 831 (1989); cited from earlier work
[3] = After 1 hr, 0.1% (w/v) ophthalmic solution (reference pharmaceutical 1)
[4] = After 2 hrs, 0.1% (w/v) ophthalmic solution (reference pharmaceutical 1)
[5] = After 4 hrs, 0.1% (w/v) ophthalmic solution (reference pharmaceutical 1)
[6] = 2 hours, 20 µℓ of 0.1% (w/v) ophthalmic solution
[7] = 4 hours, 20 µℓ of 0.1% (w/v) ophthalmic solution
[8] = 6 hours, 20 µℓ of 0.1% (w/v) ophthalmic solution
[9] = After 1 hr, 0.01% (w/v) ophthalmic solution (pharmaceutical 3), 50 µℓ, average of three subjects
[10] = After 2 hrs, 0.01% (w/v) ophthalmic solution (pharmaceutical 3), 50 µℓ, average of three subjects
[11] = After 4 hrs, 0.01% (w/v) ophthalmic solution (pharmaceutical 3), 50 µℓ, average of three subjects

Structure (SMILES): CC(C)OC(=O)CCC/C=C\C[C@@H]1[C@@H](CC[C@@H](O)CCc2ccccc2)[C@H](O)C[C@@H]1O [Latanoprost, 13,14-dihydro-17-phenyl-18,19,20-trinor PGF2α isopropyl ester, reference compound]
- Condition of nictitating membrane (Japanese white rabbits; [3]): 0.3
- Edema of eyelid conjunctiva (Japanese white rabbits; [3]): 0
- Iridial congestion (Japanese white rabbits; [3]): 0
- Opacity of the cornea (Japanese white rabbits; [3]): 0
- Opaque fraction of the cornea (Japanese white rabbits; [3]): 0
- Rubor of eyelid conjunctiva (Japanese white rabbits; [3]): 0.5
- Rubor of supraocular conjunctiva (Japanese white rabbits; [3]): 0.8
- Secretions (Japanese white rabbits; [3]): 0.3
- Condition of nictitating membrane (Japanese white rabbits; [4]): 0.3
- Edema of eyelid conjunctiva (Japanese white rabbits; [4]): 0
- Iridial congestion (Japanese white rabbits; [4]): 0
- Opacity of the cornea (Japanese white rabbits; [4]): 0
- Opaque fraction of the cornea (Japanese white rabbits; [4]): 0
- Rubor of eyelid conjunctiva (Japanese white rabbits; [4]): 0.5
- Rubor of supraocular conjunctiva (Japanese white rabbits; [4]): 0.8
- Secretions (Japanese white rabbits; [4]): 0
- Condition of nictitating membrane (Japanese white rabbits; [5]): 0.3
- Edema of eyelid conjunctiva (Japanese white rabbits; [5]): 0
- Iridial congestion (Japanese white rabbits; [5]): 0
- Opacity of the cornea (Japanese white rabbits; [5]): 0
- Opaque fraction of the cornea (Japanese white rabbits; [5]): 0
- Rubor of eyelid conjunctiva (Japanese white rabbits; [5]): 0
- Rubor of supraocular conjunctiva (Japanese white rabbits; [5]): 0.3
- Secretions (Japanese white rabbits; [5]): 0
- Total score (Japanese white rabbits; [3]): 1.9
- Total score (Japanese white rabbits; [4]): 1.6
- Total score (Japanese white rabbits; [5]): 0.6
- Change in ocular pressure after application (crab-eating macaques; [6]): -0.6 mmHg
- Change in ocular pressure after application (crab-eating macaques; [7]): -2.6 mmHg
- Change in ocular pressure after application (crab-eating macaques; [8]): -2.3 mmHg

Structure (SMILES): CC(C)OC(=O)CCC/C=C\C[C@@H]1[C@@H](/C=C/C(F)COc2cc(Cl)cc(Cl)c2)[C@H](O)C[C@@H]1O (single isomer, unassigned) [Compound A, 16-(3,5-dichlorophenoxy)-15-deoxy-15-fluoro-17,18,19,20-tetranorprostaglandin F2α isopropyl ester]
- scored in total, as much as Latanoprost did (Japanese white rabbits; 1 hour after application): about 1/5
- scored in total, as much as Latanoprost did (Japanese white rabbits; 2 hours after application): 1/2
- scored in total, as much as Latanoprost did (Japanese white rabbits; 4 hours after application): 1/3
- Condition of nictitating membrane (Japanese white rabbits; [9]): 0.2
- Edema of eyelid conjunctiva (Japanese white rabbits; [9]): 0
- Iridial congestion (Japanese white rabbits; [9]): 0
- Opacity of the cornea (Japanese white rabbits; [9]): 0
- Opaque fraction of the cornea (Japanese white rabbits; [9]): 0
- Rubor of eyelid conjunctiva (Japanese white rabbits; [9]): 0
- Rubor of supraocular conjunctiva (Japanese white rabbits; [9]): 0.2
- Secretions (Japanese white rabbits; [9]): 0
- Condition of nictitating membrane (Japanese white rabbits; [10]): 0.2
- Edema of eyelid conjunctiva (Japanese white rabbits; [10]): 0
- Iridial congestion (Japanese white rabbits; [10]): 0
- Opacity of the cornea (Japanese white rabbits; [10]): 0
- Opaque fraction of the cornea (Japanese white rabbits; [10]): 0
- Rubor of eyelid conjunctiva (Japanese white rabbits; [10]): 0.2
- Rubor of supraocular conjunctiva (Japanese white rabbits; [10]): 0.5
- Secretions (Japanese white rabbits; [10]): 0
- Condition of nictitating membrane (Japanese white rabbits; [11]): 0
- Edema of eyelid conjunctiva (Japanese white rabbits; [11]): 0
- Iridial congestion (Japanese white rabbits; [11]): 0
- Opacity of the cornea (Japanese white rabbits; [11]): 0
- Opaque fraction of the cornea (Japanese white rabbits; [11]): 0
- Rubor of eyelid conjunctiva (Japanese white rabbits; [11]): 0
- Rubor of supraocular conjunctiva (Japanese white rabbits; [11]): 0.2
- Secretions (Japanese white rabbits; [11]): 0
- Total score (Japanese white rabbits; After 1 hr, 0.01% (w/v) ophthalmic solution (pharmaceutical 3), 50 µℓ): 0.4
- Total score (Japanese white rabbits; After 2 hrs, 0.01% (w/v) ophthalmic solution (pharmaceutical 3), 50 µℓ): 0.9
- Total score (Japanese white rabbits; After 4 hrs, 0.01% (w/v) ophthalmic solution (pharmaceutical 3), 50 µℓ): 0.2
- irritation of the front of the eye (Japanese white rabbits; when applied to the eye, slight congestion of the conjunctiva was observed): little irritant
- Change in ocular pressure after application (crab-eating macaques; 2 hours, 20 µℓ of 0.01% (w/v) ophthalmic solution): -0.8 mmHg
- Change in ocular pressure after application (crab-eating macaques; [6]): -1.0 mmHg
- Change in ocular pressure after application (crab-eating macaques; 4 hours, 20 µℓ of 0.01% (w/v) ophthalmic solution): -1.8 mmHg
- Change in ocular pressure after application (crab-eating macaques; [7]): -1.4 mmHg
- lowered the intraocular pressure, times as much as Latanoprost (crab-eating macaques; 6 hours after application): about 1.5 times
- Change in ocular pressure after application (crab-eating macaques; 6 hours, 20 µℓ of 0.01% (w/v) ophthalmic solution): -3.0 mmHg
- Change in ocular pressure after application (crab-eating macaques; [8]): -3.6 mmHg

Structure (SMILES): CCCCCC(F)/C=C/[C@@H]1[C@@H](C/C=C\CCCC(=O)O)[C@@H](O)C[C@H]1O (stereo partly drawn) [15-Fluoro-15-deoxy PGF2α, 15-fluoro-15-deoxy PGF2α]
- contraction action on smooth muscle in the respiratory system as compared with the naturally occurring PGF2α [1]: 100 fold
- relaxation action on smooth muscle in the respiratory system as compared with the naturally occurring PGF2α [1]: 1000 fold
- action on the smooth muscle in the digestive and circulatory systems relative to the naturally occurring PGF2α [2]: comparable
